Structures can show the parent of a compound that is named as a salt.
Target: endogenous cellular BACE2 in the Ins1e rat cell line (Rattus norvegicus (Rat), UniProt Q6IE75)
Experiment: Assay for BACE inhibition by measuring cellular TMEM27 cleavage (ELISA of shed hTMEM27 from INS-TMEM27 cells)
Format: cell-based
Details: assay a): cellular TMEM27 cleavage, INS-TMEM27 cells (superscript a)
Source text: a) Assay for BACE Inhibition by Measuring Cellular TMEM27 Cleavage:
The assay uses the principle of inhibition of human TMEM27 cleavage by endogenous cellular BACE2 in the Ins1e rat cell line and shedding from the cell surface into the culture medium, followed by detection in an ELISA assay. Inhibition of BACE2 prevents the cleavage and shedding in a dose-dependent manner.
The stable cell line “INS-TMEM27” represents an INS1e-derived cell line with inducible expression (using the TetOn system) of full-length hTMEM27 in a doxycycline-dependent manner. The cells are cultured throughout the experiment in RPMI1640+Glutamax (Invitrogen) Penicillin/Streptomycin, 10% Fetal bovine serum, […], […], 100 micrograms/ml G418 and 100 microgram/ml hygromycin and are grown inadherent culture at 37° C. in a standard CO2 cell culture incubator.
INS-TMEM27 cells are seeded in 96-well plates. After 2 days in culture, BACE2 inhibitor is added in a range of concentrations as required by the assay and after a further two hours, doxycycline is added to a final concentration of 500 ng/ml. The cells are incubated for a further 46 hours and the supernatant harvested for detection of shed TMEM27.
An ELISA assay (using a pair of mouse anti-human-TMEM27 antibodies, raised against the extracellular domain of TMEM27) is used for detection of TMEM27 in the culture medium. An EC50 for BACE2 inhibition is calculated using the ELISA readout for each inhibitor concentration with standard curve-fitting software such as XLFit for the Excel spreadsheet program.

endogenous cellular BACE2 in the Ins1e rat cell line, sequence (Q6IE75 63-514): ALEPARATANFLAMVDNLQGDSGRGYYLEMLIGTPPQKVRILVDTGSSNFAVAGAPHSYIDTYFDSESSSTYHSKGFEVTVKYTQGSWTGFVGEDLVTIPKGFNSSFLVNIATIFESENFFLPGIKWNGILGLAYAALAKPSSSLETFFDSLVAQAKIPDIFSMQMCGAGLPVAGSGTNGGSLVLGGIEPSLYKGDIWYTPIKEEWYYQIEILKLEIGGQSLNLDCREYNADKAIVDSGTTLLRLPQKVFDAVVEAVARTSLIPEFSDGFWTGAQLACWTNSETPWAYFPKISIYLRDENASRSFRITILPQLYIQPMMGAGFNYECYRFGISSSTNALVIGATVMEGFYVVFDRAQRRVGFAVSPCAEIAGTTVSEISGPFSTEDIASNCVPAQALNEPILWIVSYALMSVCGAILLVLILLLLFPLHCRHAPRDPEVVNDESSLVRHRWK

IC50 [nM]	SMILES
704	COc1cc(C(F)(F)F)ccc1Nc1ccc(F)c([C@@]2(C)N=C(N)N(C)C(=O)C2(C)C)c1 [Example 94, (S)-2-Amino-6-[2-fluoro-5-(2-methoxy-(4-trifluoromethyl)-phenylamino)-phenyl]-3,5,5,6-tetramethyl-5,6-dihydro-3H-pyrimidin-4-one]
795	CN1C(=O)C(C)(C)[C@@](C)(c2cc(Nc3cccc(F)c3)ccc2F)N=C1N [Example 88, (S)-2-Amino-6-[2-fluoro-5-(3-fluoro-phenylamino)-phenyl]-3,5,5,6-tetramethyl-5,6-dihydro-3H-pyrimidin-4-one]
589	CN1C(=O)C(C)(C)[C@@](C)(c2cc(Nc3ccn[nH]3)ccc2F)N=C1N [Example 124, (S)-6-(5-(1H-Pyrazol-5-ylamino)-2-fluorophenyl)-2-amino-3,5,5,6-tetramethyl-5,6-dihydropyrimidin-4(3H)-one hydrochloride]
69	COc1ccc(F)cc1Nc1ccc(F)c([C@@]2(C)N=C(N)N(C)C(=O)C2(C)C)c1 [Example 84, (S)-2-Amino-6-(2-fluoro-5-(5-fluoro-2-methoxyphenylamino)phenyl)-3,5,5,6-tetramethyl-5,6-dihydropyrimidin-4(3H)-one]
406	COC(=O)CC1CCC(Nc2ccc(F)c([C@@]3(C)N=C(N)N(C)C(=O)C3(C)C)c2)C1 (stereo partly drawn) [Example 95, {3-[3-((S)-2-Amino-1,4,5,5-tetramethyl-6-oxo-1,4,5,6-tetrahydro-pyrimidin-4-yl)-4-fluoro-phenylamino]-cyclopentyl}-acetic acid methyl ester]
1	CN1C(=O)C(C)(C)[C@@](C)(c2cc(Nc3ccccc3C#N)ccc2F)N=C1N [Example 103, (S)-2-(3-(2-Amino-1,4,5,5-tetramethyl-6-oxo-1,4,5,6-tetrahydropyrimidin-4-yl)-4-fluorophenylamino)benzonitrile]
46	CC(Nc1ccc(F)c([C@@]2(C)N=C(N)N(C)C(=O)C2(C)C)c1)c1ccn[nH]1 (stereo partly drawn) [Example 111, (S)-2-Amino-6-{2-fluoro-5-[1-(2H-pyrazol-3-yl)-ethylamino]-phenyl}-3,5,5,6-tetramethyl-5,6-dihydro-3H-pyrimidin-4-one]
81	Cc1cc(Nc2ccc(F)c([C@@]3(C)N=C(N)N(C)C(=O)C3(C)C)c2)ccc1C#N [Example 149, (S)-4-(3-(2-Amino-1,4,5,5-tetramethyl-6-oxo-1,4,5,6-tetrahydropyrimidin-4-yl)-4-fluorophenylamino)-2-methylbenzonitrile]
135	COc1cc(F)ccc1Nc1ccc(F)c([C@@]2(C)N=C(N)N(C)C(=O)C2(C)C)c1 [Example 82, (S)-2-Amino-6-(2-fluoro-5-(4-fluoro-2-methoxyphenylamino)phenyl)-3,5,5,6-tetramethyl-5,6-dihydropyrimidin-4(3H)-one]

The next lines start with the compound.

SMILES	IC50 [nM]
CN1C(=O)C(C)(C)[C@@](C)(c2cc(Nc3ccccc3OC(F)F)ccc2F)N=C1N [Example 73, (S)-2-Amino-6-(5-(2-(difluoromethoxy)phenylamino)-2-fluorophenyl)-3,5,5,6-tetramethyl-5,6-dihydropyrimidin-4(3H)-one]	135
CN1C(=O)C(C)(C)[C@@](C)(c2cc(NC3CCc4cccc(Cl)c43)ccc2F)N=C1N (stereo partly drawn) [Example 49, (S)-2-Amino-6-[5-(7-chloro-indan-1-ylamino)-2-fluoro-phenyl]-3,5,5,6-tetramethyl-5,6-dihydro-3H-pyrimidin-4-one]	321
CN1C(=O)C(C)(C)[C@@](C)(c2cc(NC(=O)C(O)C(F)(F)F)ccc2F)N=C1N (stereo partly drawn) [Example 8, N-[3-((S)-2-Amino-1,4,5,5-tetramethyl-6-oxo-1,4,5,6-tetrahydro-pyrimidin-4-yl)-4-fluoro-phenyl]-3,3,3-trifluoro-2-hydroxy-propionamide]	9
CN1C(=O)C(C)(C)[C@@](C)(c2cc(NCC3CC3(F)F)ccc2F)N=C1N (stereo partly drawn) [Example 58, (S)-2-Amino-6-{5-[(2,2-difluoro-cyclopropylmethyl)-amino]-2-fluoro-phenyl}-3,5,5,6-tetramethyl-5,6-dihydro-3H-pyrimidin-4-one]	10
CN1C(=O)C(C)(C)[C@@](C)(c2cc(NC3CCc4cc(Cl)cnc43)ccc2F)N=C1N (stereo partly drawn) [Example 62, (6S)-2-Amino-6-(5-(3-chloro-6,7-dihydro-5H-cyclopenta[b]pyridin-7-ylamino)-2-fluorophenyl)-3,5,5,6-tetramethyl-5,6-dihydropyrimidin-4(3H)-one]	1
CN1C(=O)C(C)(C)[C@@](C)(c2cccc(NC(=O)C3(C(F)(F)F)CC3)c2)N=C1N [Example 2, 1-Trifluoromethyl-cyclopropanecarboxylic acid [3-((R)-2-amino-1,4,5,5-tetramethyl-6-oxo-1,4,5,6-tetrahydro-pyrimidin-4-yl)-phenyl]-amide]	82
CN1C(=O)C(C)(C)[C@@](C)(c2cc(NC(=O)[C@@H]3CC3(F)F)ccc2F)N=C1N [Example 10, (S)-2,2-difluoro-cyclopropanecarboxylic acid [3-((S)-2-amino-1,4,5,5-tetramethyl-6-oxo-1,4,5,6-tetrahydro-pyrimidin-4-yl)-4-fluoro-phenyl]-amide]	2
Cc1ccc2c(c1)C(Nc1ccc(F)c([C@@]3(C)N=C(N)N(C)C(=O)C3(C)C)c1)CC2(C)C (stereo partly drawn) [Example 46, (S)-2-Amino-6-[2-fluoro-5-(3,3,6-trimethyl-indan-1-ylamino)-phenyl]-3,5,5,6-tetramethyl-5,6-dihydro-3H-pyrimidin-4-one]	109
CN1C(=O)C(C)(C)[C@@](C)(c2cc(NC3CCc4cc(F)ccc43)ccc2F)N=C1N (stereo partly drawn) [Example 35, (6S)-2-Amino-6-(2-fluoro-5-(5-fluoro-2,3-dihydro-1H-inden-1-ylamino)phenyl)-3,5,5,6-tetramethyl-5,6-dihydropyrimidin-4(3H)-one]	84
COC(F)(C(=O)Nc1ccc(F)c([C@@]2(C)N=C(N)N(C)C(=O)C2(C)C)c1)C(F)(F)F (stereo partly drawn) [Example 20, N-(3-((S)-2-Amino-1,4,5,5-tetramethyl-6-oxo-1,4,5,6-tetrahydropyrimidin-4-yl)-4-fluorophenyl)-2,3,3,3-tetrafluoro-2-methoxypropanamide]	66
Cc1cc(Nc2ccc(F)c([C@@]3(C)N=C(N)N(C)C(=O)C3(C)C)c2)n(C)n1 [Example 39, (S)-2-Amino-6-[5-(2,5-dimethyl-2H-pyrazol-3-ylamino)-2-fluoro-phenyl]-3,5,5,6-tetramethyl-5,6-dihydro-3H-pyrimidin-4-one]	234
CCC[C@@]1(c2cccc(NC(=O)C3(C(F)(F)F)CC3)c2)CC(=O)N(C)C(N)=N1 [Example 14, 1-Trifluoromethyl-cyclopropanecarboxylic acid [3-((S)-2-amino-1-methyl-6-oxo-4-propyl-1,4,5,6-tetrahydro-pyrimidin-4-yl)-phenyl]-amide]	120
CN1C(=O)C[C@]2(CCc3ccc(NC(=O)C4(C(F)(F)F)CC4)cc32)N=C1N [Example 15, (S)—N-(2′-Amino-1′-methyl-6′-oxo-2,3,5′,6′-tetrahydro-1′H-spiro[indene-1,4′-pyrimidine]-6-yl)-1-(trifluoromethyl)cyclopropanecarboxamide]	7
CN1C(=O)C(C)(C)[C@@](C)(c2cc(NC(=O)CC(F)(F)F)ccc2F)N=C1N [Example 3, N-[3-((S)-2-Amino-1,4,5,5-tetramethyl-6-oxo-1,4,5,6-tetrahydro-pyrimidin-4-yl)-4-fluoro-phenyl]-3,3,3-trifluoro-propionamide]	11

Reference: US8815881B2 (Hoffmann-La Roche Inc., priority 2010, dated 2014)
